Results published in patent US20220111056A1, “DRUG-LOADED EMULSION” (ZHEJIANG ZHIDA PHARMACEUTICAL CO., LTD., priority 2019, published 2022).

Format: physicochemical
Method: The specific experimental method was as follows. […] The chloroform solution was mixed with 0.5 ml of chloroform, from which 0.5 ml of diluent was taken and two-fold serial dilution was performed by using chloroform. Then 0.5 ml of a chloroform solution of paclitaxel (10 mg/ml) was added to the above-mentioned sample after the two-fold serial dilution, and then left in a hood to be naturally volatilized overnight. Crystal formation in the dried sample was observed and recorded.

solubility of paclitaxel (crystal formation): +
Substance: castor oil
